In brackets after ≈: the same amount, converted by molar mass.
tested on: HCT116; assay: animal or person; details: Mus musculus, HCT-116, ip, 504 h; 50 mg/kg/day i.p., once a day for 4 days; nude mice; tumor weight on 21st day; read-out: Growth inhibition ratio
Description: In vivo Antitumor Test Against HCT116 (Human Colon Cancer)
HCT116 (5 to 8×10^6) was subcutaneously transplanted to the flank of each nude mouse (BALB/c·nu/nu, aged 7 to 8 weeks, female). A test compound according to the present invention was suspended in a physiological saline containing 3.5% of dimethyl sulfoxide and 6.5% of Tween 80 and the obtained suspension was intraperitoneally administered to the mice treated above once a day in a predetermined dose for 4 days after the time at which the tumor volume had increased to about 100 mm^3, which was about 7 days after the transplantation. On the other hand, only a physiological saline containing 3.5% of dimethyl sulfoxide and 6.5% of Tween 80 was intraperitoneally administered to the mice of the control group. The control group was composed of ten mice, while each treated group was composed of five mice. On the 21st day after the initiation of administration, the tumor was extirpated from each mouse to determine its weight. The tumor growth inhibition ratio was determined by the following formula: [formula] T: average weight of tumor of the treated group C: average weight of tumor of the control group

SMILES | inhibition in vivo at 50 mg/kg [%]
Nc1ccc(S(=O)(=O)Nc2cccc3c(Cl)c[nH]c23)cn1 [Example 33] | 74
NS(=O)(=O)c1ccc(S(=O)(=O)Nc2cccc3c(Cl)c[nH]c23)cc1 [Example 19] | 88
CC(C)Nc1ccc(S(=O)(=O)Nc2cccc3c(Cl)c[nH]c23)cn1 [Example 46] | 84
CS(=O)(=O)NCc1ccc(S(=O)(=O)Nc2cccc3c(Cl)c[nH]c23)cc1 [Example 53] | 86

same assay, conditions: Mus musculus, HCT-116, ip, 504 h; 100 mg/kg/day i.p., once a day for 4 days; nude mice; tumor weight on 21st day; read-out: Growth inhibition ratio

SMILES | inhibition in vivo at 100 mg/kg [%]
CS(=O)(=O)Nc1ccc(S(=O)(=O)Nc2cccc3c(Cl)c[nH]c23)cc1 [Example 4] | 97
CS(=O)(=O)c1ccc(S(=O)(=O)Nc2cccc3c(Cl)c[nH]c23)cc1 [Example 23] | 87
CNC(=O)c1ccc(S(=O)(=O)Nc2cccc3c(Cl)c[nH]c23)cc1 [Example 72] | 87
N#Cc1c[nH]c2c(NS(=O)(=O)c3ccc(N)nc3)cccc12 [Example 37] | 93

tested on: colon 38 cells; assay: In vitro antitumor test against colon 38 cells (MTT); type: cell-based; details: 72 h, concentration at which 50% of mouse colon 38 cells are inhibited, 3 days
Method: In vitro Antitumor Test Against Colon 38 Cells (Mouse Colon Cancer Cells)
2.5×10^3 (0.1 ml) of colon 38 cells suspended in RPMI1640 medium (a product of Sanko Junyaku) containing 10% of fetal bovine serum, penicillin (100 units/ml), streptomycin (100 μg/ml), mercaptoethanol (5×10^-5 M) and sodium pyruvate (1 mM) were inoculated in each well of a 96-well flat-bottomed microplate, and cultured in an incubator containing 5% of carbon dioxide at 37° C. for one day.
A test compound according to the present invention was dissolved in dimethyl sulfoxide in a concentration of 20 mg/ml and the resulting solution was diluted with 10% fetal bovine serum/RPMI1640 medium to a concentration of 200 μg/ml. The resulting solution was diluted with 10% fetal bovine serum/RPMI1640 medium to prepare 3-fold serial dilutions with the maximum concentration being 200 μg/ml. The obtained dilutions were each poured into the well of the above-described culture plate in an amount of 0.1 ml. The resulting plate was cultured at 37° C. in an incubator containing 5% of carbon dioxide for 3 days.
Thereafter, a solution of MTT[3-(4,5-dimethylthiazol-2-yl)-2,5-diphenyltetrazolium bromide] (having a concentration of 3.3 mg/ml) was added to each well in an amount of 0.05 ml. The resulting mixtures were further incubated for 2 hours. The supernatant was removed from each well by suction. Formed formazan was dissolved in 0.1 ml of dimethyl sulfoxide. The absorbance at 540 nm was determined with a microplate reader and the absorbance was taken as an index of the number of viable cells. The inhibitory ratio of the test compound was calculated according to the following formula to determine the IC50 of the test compound, with the IC50 referring to the concentration at which 50% of mouse colon 38 cells are inhibited: [formula] T: absorbance of well containing a test compound C: absorbance of well containing no test compound

SMILES | IC50 [µg/mL]
N#Cc1c[nH]c2c(NS(=O)(=O)c3ccco3)cccc12 [Example 48] | 0.23 (≈ 0.801 µM)
CN(C)CCNc1ccc(S(=O)(=O)Nc2cccc3c(Cl)c[nH]c23)cn1 [Example 47] | 0.22 (≈ 0.559 µM)
Cc1c(Cl)cccc1S(=O)(=O)Nc1cccc2c(C#N)c[nH]c12 [Example 45] | 0.44 (≈ 1.27 µM)
CSCc1ccc(S(=O)(=O)Nc2cccc3c(Cl)c[nH]c23)cc1 [Example 15] | 0.35 (≈ 0.954 µM)
CNS(=O)(=O)c1ccc(S(=O)(=O)Nc2cccc3c(Cl)c[nH]c23)cc1 [Example 61] | 0.24 (≈ 0.6 µM)
Nc1ccc(S(=O)(=O)Nc2cccc3c(Cl)c[nH]c23)cn1 [Example 33] | 0.1 (≈ 0.31 µM)
NS(=O)(=O)CCc1ccc(S(=O)(=O)Nc2cccc3c(Cl)c[nH]c23)cc1 [Example 35] | 0.14 (≈ 0.338 µM)
N#Cc1c[nH]c2c(NS(=O)(=O)c3ccc(Cl)nc3)cccc12 [Example 18] | 0.11 (≈ 0.331 µM)
NC(=S)c1ccc(S(=O)(=O)Nc2cccc3c(Cl)c[nH]c23)cc1 [Example 64] | 0.23 (≈ 0.629 µM)
NS(=O)(=O)c1ccc(S(=O)(=O)Nc2cccc3c(Cl)c[nH]c23)cc1 [Example 19] | 0.1 (≈ 0.259 µM)
CS(=O)(=O)Nc1ccc(S(=O)(=O)Nc2cccc3c(Cl)c[nH]c23)cc1 [Example 4] | 0.26 (≈ 0.65 µM)
O=S(=O)(Nc1cccc2c(Cl)c[nH]c12)c1ccc(Cl)nc1 [Example 14] | 0.23 (≈ 0.672 µM)
N#CCCNc1ccc(S(=O)(=O)Nc2cccc3c(Cl)c[nH]c23)cn1 [Example 71] | 0.23 (≈ 0.612 µM)
CC(C)Nc1ccc(S(=O)(=O)Nc2cccc3c(Cl)c[nH]c23)cn1 [Example 46] | 0.47 (≈ 1.29 µM)
CS(=O)(=O)c1ccc(S(=O)(=O)Nc2cccc3c(Cl)c[nH]c23)cc1 [Example 23] | 0.13 (≈ 0.338 µM)
O=S(=O)(Nc1cccc2c(Cl)c[nH]c12)c1cccc(Cl)c1 [Example 7] | 0.22 (≈ 0.645 µM)
CN(Cc1ccc(S(=O)(=O)Nc2cccc3c(Cl)c[nH]c23)cc1)S(C)(=O)=O [Example 83] | 0.27 (≈ 0.631 µM)
CNC(=O)c1ccc(S(=O)(=O)Nc2cccc3c(Cl)c[nH]c23)cc1 [Example 72] | 0.15 (≈ 0.412 µM)
CN(C)S(=O)(=O)Nc1ccc(S(=O)(=O)Nc2cccc3c(Cl)c[nH]c23)cc1 [Example 49] | 0.32 (≈ 0.746 µM)
Cn1cnc(S(=O)(=O)Nc2cccc3c(C#N)c[nH]c23)c1 [Example 55] | 0.59 (≈ 1.96 µM)

SMILES | IC50 [µg/mL]
N#Cc1c[nH]c2c(NS(=O)(=O)c3ccc(N)cc3)cc(Br)cc12 [Example 68] | 0.57 (≈ 1.46 µM)
N#Cc1c[nH]c2c(NS(=O)(=O)c3ccc(Cl)s3)cccc12 [Example 40] | 0.27 (≈ 0.799 µM)
CS(=O)(=O)NCc1ccc(S(=O)(=O)Nc2cccc3c(Cl)c[nH]c23)cc1 [Example 53] | 0.12 (≈ 0.29 µM)
C[S+]([O-])c1ccc(S(=O)(=O)Nc2cccc3c(Cl)c[nH]c23)cc1 (stereo not drawn) [Example 24] | 0.09 (≈ 0.244 µM)
Cc1ccc(NS(=O)(=O)c2ccc(N)cc2)c2[nH]cc(Cl)c12 [Example 27] | 0.1 (≈ 0.298 µM)
CN(C)S(=O)(=O)c1ccc(S(=O)(=O)Nc2cccc3c(Cl)c[nH]c23)cc1 [Example 74] | 0.36 (≈ 0.87 µM)
CCNS(=O)(=O)c1ccc(S(=O)(=O)Nc2cccc3c(Cl)c[nH]c23)cc1 [Example 69] | 0.47 (≈ 1.14 µM)
NS(=O)(=O)Cc1ccc(S(=O)(=O)Nc2ccc(Cl)c3c(Cl)c[nH]c23)cc1 [Example 77] | 0.17 (≈ 0.391 µM)
Nc1ccc(S(=O)(=O)Nc2ccc(Cl)c3c(Cl)c[nH]c23)cc1 [Example 8] | 0.09 (≈ 0.253 µM)
N#Cc1c[nH]c2c(NS(=O)(=O)c3ccc(N)nc3)cccc12 [Example 37] | 0.19 (≈ 0.606 µM)
O=S(=O)(Nc1cccc2c(Cl)c[nH]c12)c1ccc(NC2CC2)nc1 [Example 59] | 0.54 (≈ 1.49 µM)
CN(c1ccc(S(=O)(=O)Nc2cccc3c(Cl)c[nH]c23)cc1)S(C)(=O)=O [Example 52] | 0.14 (≈ 0.338 µM)
CC(=O)Nc1ccc(S(=O)(=O)Nc2cccc3c(Cl)c[nH]c23)cc1Cl [Example 38] | 0.57 (≈ 1.43 µM)
CS(=O)(=O)NCCc1ccc(S(=O)(=O)Nc2cccc3c(Cl)c[nH]c23)cc1 [Example 62] | 0.18 (≈ 0.421 µM)
CS(=O)(=O)CCc1ccc(S(=O)(=O)Nc2cccc3c(C#N)c[nH]c23)cc1 [Example 78] | 0.26 (≈ 0.644 µM)
CN(CCc1ccc(S(=O)(=O)Nc2cccc3c(Cl)c[nH]c23)cc1)S(C)(=O)=O [Example 81] | 0.25 (≈ 0.566 µM)
CSc1ccc(S(=O)(=O)Nc2cccc3c(Cl)c[nH]c23)cc1 [Example 22] | 0.69 (≈ 1.96 µM)
CC(=O)N(C)c1ccc(S(=O)(=O)Nc2cccc3c(Cl)c[nH]c23)cc1 [Example 79] | 0.09 (≈ 0.238 µM)
CONS(=O)(=O)c1ccc(S(=O)(=O)Nc2cccc3c(Cl)c[nH]c23)cc1 [Example 43] | 0.47 (≈ 1.13 µM)
COC(=O)Nc1ccc(S(=O)(=O)Nc2cccc3c(Cl)c[nH]c23)cc1 [Example 41] | 0.57 (≈ 1.5 µM)

SMILES | IC50 [µg/mL]
Cc1c[nH]c2c(NS(=O)(=O)c3ccc(S(C)(=O)=O)cc3)cccc12 [Example 50] | 0.22 (≈ 0.604 µM)
CC(=O)c1c[nH]c2c(NS(=O)(=O)c3cccc(Cl)c3)cccc12 [Example 67] | 0.87 (≈ 2.49 µM)
O=S(=O)(Nc1cccc2c(Cl)c[nH]c12)c1ccc(S(=O)(=O)N2CCCC2)cc1 [Example 54] | 0.51 (≈ 1.16 µM)
Cc1cncc(S(=O)(=O)Nc2cccc3c(C#N)c[nH]c23)c1 [Example 60] | 0.08 (≈ 0.256 µM)
N#Cc1cccc(S(=O)(=O)Nc2cccc3c(C#N)c[nH]c23)c1 [Example 51] | 0.09 (≈ 0.279 µM)
C[S+]([O-])Cc1ccc(S(=O)(=O)Nc2cccc3c(Cl)c[nH]c23)cc1 (stereo not drawn) [Example 34] | 0.14 (≈ 0.366 µM)
O=S(=O)(Nc1cccc2c(Cl)c[nH]c12)c1ccc(O)nc1 [Example 80] | 0.19 (≈ 0.587 µM)
N#Cc1ccc(NS(=O)(=O)c2ccc(N)cc2)c2[nH]cc(Cl)c12 [Example 32] | 0.17 (≈ 0.49 µM)
O=C(c1ccc(S(=O)(=O)Nc2cccc3c(Cl)c[nH]c23)cc1)N1CCCC1 [Example 75] | 0.28 (≈ 0.693 µM)
N#Cc1c[nH]c2c(NS(=O)(=O)c3ccc(Br)cn3)cccc12 [Example 65] | 0.2 (≈ 0.53 µM)
O=[N+]([O-])c1ccc(S(=O)(=O)Nc2cccc3c(Cl)c[nH]c23)cc1 [Example 2] | 0.54 (≈ 1.54 µM)
O=S(=O)(Nc1cccc2c(Cl)c[nH]c12)c1ccc(NCCO)nc1 [Example 56] | 0.2 (≈ 0.545 µM)
NS(=O)(=O)Cc1ccc(S(=O)(=O)Nc2cccc3c(Cl)c[nH]c23)cc1 [Example 63] | 0.12 (≈ 0.3 µM)
CCS(=O)(=O)Nc1ccc(S(=O)(=O)Nc2cccc3c(Cl)c[nH]c23)cc1 [Example 70] | 0.42 (≈ 1.01 µM)
COc1ccc(S(=O)(=O)Nc2cccc3cn[nH]c23)cc1 [Example 13] | 0.63 (≈ 2.08 µM)
CS(=O)(=O)CCc1ccc(S(=O)(=O)Nc2cccc3c(Cl)c[nH]c23)cc1 [Example 36] | 0.11 (≈ 0.266 µM)
O=S(=O)(Nc1cccc2c(Cl)c[nH]c12)c1ccc(S)nc1 [Example 57] | 0.66 (≈ 1.94 µM)
CC(=O)Nc1ccc(S(=O)(=O)Nc2ccc(C)c3c(Cl)c[nH]c23)cc1 [Example 26] | 0.17 (≈ 0.45 µM)

— patent publication US5721246A, “Heterobicyclic sulfonamide and sulfonic ester derivatives” (Eisai Co., Ltd., priority 1993, dated 1998)
